The results in this text go back to US20120165310A1, “ETHER DERIVATIVES OF BICYCLIC HETEROARYLS” (NOVARTIS AG, priority 2009, published 2012).

This assay concerns the target T1, IGF-1R (Homo sapiens, UniProt P08069).
T1 construct: expressed in transfected cells; host or cells: Hek293 (Hek293-IGF1R)
In words: Cellular IGF-1R assay: capture ELISA (MSD) of receptor phosphorylation in Hek293 cells. The format is cell-based. Conditions: Hek293-IGF1R cells, 1 h pre-incubation, 10 min IGF stimulation, pIGF1R capture ELISA. The method in brief:
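IC50 from 4-parameter fit of IGF1R phosphorylation, normalised to IGF-stimulated and unstimulated controls, measured by MSD capture ELISA on lysates. Hek293-IGF1R cells in starvation medium got compound 1 h (top 10 μM, 3-fold steps, 0.1% DMSO) before a 10 min pulse of 1.0 ng/μL IGF.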
A general note: In an ELISA, binding on a coated surface is turned into a signal by an enzyme label.

T1 sequence (P08069 31-1367): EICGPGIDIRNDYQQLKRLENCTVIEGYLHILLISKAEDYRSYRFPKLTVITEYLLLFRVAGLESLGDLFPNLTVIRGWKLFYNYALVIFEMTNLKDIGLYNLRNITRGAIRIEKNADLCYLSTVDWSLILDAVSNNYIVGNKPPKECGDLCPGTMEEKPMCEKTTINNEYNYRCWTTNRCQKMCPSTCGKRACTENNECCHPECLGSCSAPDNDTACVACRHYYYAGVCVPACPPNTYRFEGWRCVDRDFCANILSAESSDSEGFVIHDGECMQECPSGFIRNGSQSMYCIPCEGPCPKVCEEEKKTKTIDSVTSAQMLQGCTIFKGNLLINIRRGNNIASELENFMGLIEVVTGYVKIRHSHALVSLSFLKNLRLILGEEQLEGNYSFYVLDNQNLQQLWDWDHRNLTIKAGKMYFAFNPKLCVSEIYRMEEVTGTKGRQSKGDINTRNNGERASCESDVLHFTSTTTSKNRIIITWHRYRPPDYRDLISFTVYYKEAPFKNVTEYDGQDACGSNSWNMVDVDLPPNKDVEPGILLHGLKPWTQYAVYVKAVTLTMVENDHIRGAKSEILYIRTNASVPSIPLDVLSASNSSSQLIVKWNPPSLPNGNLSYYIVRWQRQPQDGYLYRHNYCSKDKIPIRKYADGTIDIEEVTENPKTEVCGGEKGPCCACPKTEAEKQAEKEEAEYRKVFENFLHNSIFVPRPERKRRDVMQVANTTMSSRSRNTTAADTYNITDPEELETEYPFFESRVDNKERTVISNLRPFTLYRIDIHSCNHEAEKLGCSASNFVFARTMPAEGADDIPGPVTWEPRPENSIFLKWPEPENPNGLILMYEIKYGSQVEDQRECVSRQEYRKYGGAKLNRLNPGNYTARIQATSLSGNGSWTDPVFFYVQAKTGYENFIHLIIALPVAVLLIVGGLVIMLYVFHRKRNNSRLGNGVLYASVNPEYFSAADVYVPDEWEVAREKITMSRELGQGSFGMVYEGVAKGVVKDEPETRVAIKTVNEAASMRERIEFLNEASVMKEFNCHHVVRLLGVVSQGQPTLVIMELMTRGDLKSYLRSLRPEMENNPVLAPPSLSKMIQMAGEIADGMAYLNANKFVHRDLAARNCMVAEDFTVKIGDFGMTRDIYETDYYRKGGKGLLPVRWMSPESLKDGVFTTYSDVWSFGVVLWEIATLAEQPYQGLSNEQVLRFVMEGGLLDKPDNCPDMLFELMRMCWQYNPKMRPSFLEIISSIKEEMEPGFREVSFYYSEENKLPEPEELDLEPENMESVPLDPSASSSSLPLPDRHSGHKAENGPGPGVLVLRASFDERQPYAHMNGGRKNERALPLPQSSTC

`CC1(C)CCC(COc2cccc(-c3cn([C@H]4C[C@@H](CN5CCC[C@H]5C(N)=O)C4)c4ncnc(N)c34)c2)O1` (stereo partly drawn) [Example 50, (S)-1-(cis-3-{4-amino-5-[3-(5,5-dimethyl-tetrahydro-furan-2-ylmethoxy)-phenyl]-pyrrolo[2,3-d]pyrimidin-7-yl}-cyclobutylmethyl)-pyrrolidine-2-carboxylic acid amide] registered an IC50 of 8 nM. `CN1CCN(C[C@H]2C[C@@H](n3cc(-c4cccc(OCC56CCC(CC5)O6)c4)c4c(N)ncnc43)C2)CC1=O` (relative stereo) [Example 210, 4-(cis-3-{4-Amino-5-[3-(7-oxa-bicyclo[2.2.1]hept-1-ylmethoxy)-phenyl]-pyrrolo[2,3-d]pyrimidin-7-yl}-cyclobutylmethyl)-1-methyl-piperazin-2-one] came in with an IC50 of 115 to 194 nM. For `CC1(C)CCC(COc2cccc(-c3cn([C@H]4C[C@@H](CN5CC[C@@H](O)C5)C4)c4ncnc(N)c34)c2)O1` (stereo partly drawn) [Example 58, (R)-1-(cis-3-{4-amino-5-[3-(5,5-dimethyl-tetrahydro-furan-2-ylmethoxy)-phenyl]-pyrrolo[2,3-d]pyrimidin-7-yl}cyclobutylmethyl)-pyrrolidin-3-ol], 50 nM corresponded to half-maximal inhibition (IC50). Next, `CS(=O)(=O)NCC1CC(n2cc(-c3cccc(OCC45CCC(CC4)O5)c3)c3c(N)ncnc32)C1` (centres unmarked) [Example 167, N-(3-{4-amino-5-[3-(7-oxa-bicyclo[2.2.1]hept-1-ylmethoxy)-phenyl]-pyrrolo[2,3-d]pyrimidin-7-yl}-cyclobutylmethyl)-methanesulfonamide]: 167 nM; `Nc1ncnc2c1c(-c1cccc(OCC34CCC(CC3)O4)c1)cn2C1CC(O)(CN2CCCC2CO)C1` (single isomer, unassigned) [Example 200]: 263 nM; `CC1(C)CCC(COc2cccc(-c3cn([C@H]4C[C@@H](CN5CCC(F)(F)CC5)C4)c4ncnc(N)c34)c2)O1` (single isomer, unassigned) [Example 54]: 45 to 120 nM.

Regarding `Nc1ncnc2c1c(-c1cccc(OCC34CCC(CC3)O4)c1)cn2[C@H]1CC[C@@H](NC(=O)C2CCC2)CC1` [Example 142, N-((1S,4S)-4-(5-(3-(7-oxabicyclo[2.2.1]heptan-1-ylmethoxy)phenyl)-4-amino-7H-pyrrolo[2,3-d]pyrimidin-7-yl)cyclohexyl)cyclobutanecarboxamide], the IC50 was 54 nM.

`Nc1ncnc2c1c(-c1cccc(OCC34CCC(CC3)O4)c1)cn2C1CC(N2CCN(CCO)CC2)C1` (centres unmarked) [Example 170, 2-[4-(3-{4-amino-5-[3-(7-oxa-bicyclo[2.2.1]hept-1-ylmethoxy)-phenyl]-pyrrolo[2,3-d]pyrimidin-7-yl}-cyclobutyl)-piperazin-1-yl]-ethanol] yielded an IC50 of 44 nM. As to `NC(=O)[C@H]1CCCN1C[C@H]1C[C@H](n2cc(-c3cccc(OCC45CCC(CC4)O5)c3)c3c(N)ncnc32)C1` [Example 79, (R)-1-(trans-3-{4-amino-5-[3-(7-oxa-bicyclo[2.2.1]hept-1-ylmethoxy)-phenyl]-pyrrolo[2,3-d]pyrimidin-7-yl}cyclobutylmethyl)-pyrrolidine-2-carboxylic acid amide], half-maximal inhibition (IC50) was put at 7 nM.

For the molecule `CC1CCC(COc2cccc(-c3cn(C4CC(CN5CCC5)C4)c4ncnc(N)c34)c2)O1` (single isomer, unassigned) [Example 7, cis-(RR and SS)-7-(3-azetidin-1-ylmethyl-cyclobutyl)-5-[3-(5-methyl-tetrahydro-furan-2-ylmethoxy)-phenyl]-7H-pyrrolo[2,3-d]pyrimidin-4-ylamine], the IC50 lay within 95 to 117 nM. The molecule `Nc1ncnc2c1c(-c1cccc(OCC34CCC(CC3)O4)c1)cn2[C@@H]1CCN(C2CS(=O)(=O)C2)C1` [Example 225, 7-[(R)-1-(1,1-dioxo-thietan-3-yl)-pyrrolidin-3-yl]-5-[3-(7-oxa-bicyclo[2.2.1]hept-1-ylmethoxy)-phenyl]-7H-pyrrolo[2,3-d]pyrimidin-4-ylamine] showed an IC50 of 319 nM. Molecule `Nc1ncnc2c1c(-c1cccc(OCC34CCC(CC3)O4)c1)cn2C1CC(CN2CCC2)C1` (centres unmarked) [Example 23, 7-(3-azetidin-1-ylmethyl-cyclobutyl)-5-[3-(7-oxa-bicyclo[2.2.1]hept-1-ylmethoxy)-phenyl]-7H-pyrrolo[2,3-d]pyrimidin-4-ylamine] came in with a 50% inhibitory concentration (IC50) of 45 to 60 nM. The figure for `CS(=O)(=O)CCN1CCC(n2cc(-c3cccc(OCC45CCC(CC4)O5)c3)c3c(N)ncnc32)CC1` [Example 114, 5-(3-(7-oxabicyclo[2.2.1]heptan-1-ylmethoxy)phenyl)-7-(1-(2-(methylsulfonyl)ethyl)piperidin-4-yl)-7H-pyrrolo[2,3-d]pyrimidin-4-amine] is 299 nM; for `Nc1ncnc2c1c(-c1cccc(OCC3CCCCO3)c1)cn2[C@H]1C[C@@H](CN2CCC[C@@H]2C(=O)O)C1` (stereo partly drawn) [Example 90, 1-(cis-3-{4-amino-5-[3-(tetrahydro-pyran-2-ylmethoxy)-pheny]-pyrrolo[2,3-d]pyrimidin-7-yl}-cyclobutylmethyl)-pyrrolidine-2-carboxylic acid] it is 538 nM; for `NC[C@H]1C[C@@H](n2cc(-c3cccc(OCC45CCC(CC4)O5)c3)c3c(N)ncnc32)C1` (relative stereo) [Example 160, 7-[cis-3-aminomethyl-cyclobutyl]-5-[3-(7-oxa-bicyclo[2.2.1]hept-1-ylmethoxy)-phenyl]-7H-pyrrolo[2,3-d]pyrimidin-4-ylamine] it is 24 nM. Take `NC[C@]1(O)C[C@@H](n2cc(-c3cccc(OCC45CCC(CC4)O5)c3)c3c(N)ncnc32)C1` [Example 208, (Z)-1-Aminomethyl-3-{4-amino-5-[3-(7-oxa-bicyclo[2.2.1]hept-1-ylmethoxy)-phenyl]-pyrrolo[2,3-d]pyrimidin-7-yl}-cyclobutanol]: the IC50 was determined as 175 nM. Next, `Nc1ncnc2c1c(-c1cccc(OC[C@@H]3CCCO3)c1)cn2C1CC2(CNC(=O)O2)C1` (stereo partly drawn) [Example 238, 2-(4-Amino-5-{3-[(S)-1-(tetrahydro-furan-2-yl)methoxy]-phenyl}-pyrrolo[2,3-d]pyrimidin-7-yl)-5-oxa-7-aza-spiro[3.4]octan-6-one]: 366 nM. The figure for `NC(=O)C1C2CCC(C2)N1CC1CC(n2cc(-c3cccc(OCC4CCCCO4)c3)c3c(N)ncnc32)C1` [Example 95, (1R,3R,45)-2-(((1s, 3S)-3-(4-amino-5-(3-((tetrahydro-2H-pyran-2-yl)methoxy)phenyl)-7H-pyrrolo[2,3-d]pyrimidin-7-yl)cyclobutyl)methyl)-2-azabicyclo[2.2.1]heptane-3-carboxamide] is 219 nM.

On to `Nc1ncnc2c1c(-c1cccc(OCC34CCC(CC3)O4)c1)cn2C1CCC(N2CCS(=O)(=O)CC2)CC1` (centres unmarked) [Example 131, 7-[4-(1,1-Dioxo-1λ6-thiomorpholin-4-yl)-cyclohexyl]-5-[3-(7-oxa-bicyclo[2.2.1]hept-1-ylmethoxy)-phenyl]-7H-pyrrolo[2,3-d]pyrimidin-4-ylamine], for which the IC50 came to 108 nM. `Nc1ncnc2c1c(-c1cccc(OCC3CCCO3)c1)cn2[C@H]1C[C@@H](CN2CCS(=O)(=O)CC2)C1` (relative stereo) [Example 88, 7-[cis-3-(1,1-Dioxothiomorpholin-4-ylmethyl)-cyclobutyl]-5-[3-(tetrahydro-furan-2-ylmethoxy)-phenyl]-7H-pyrrolo[2,3-d]pyrimidin-4-ylamine] displayed a 50% inhibitory concentration (IC50) of 234 nM.

The IC50 is the concentration that gives 50% inhibition. A lower IC50 goes with inhibition by little substance.
